The target in this experiment is LSD-1 enzyme (Homo sapiens (Human), UniProt O60341). In words: LANCE LSD1/KDM1A demethylase assay (LSD1 histone demethylase biochemical assay). The conditions noted are these: 1 nM LSD-1 enzyme, 1 hour preincubation at 25° C., 0.4 μM biotin-labeled Histone H3 peptide substrate. The protocol:
LANCE LSD1/KDM1A demethylase assay—10 μL of 1 nM LSD-1 enzyme (ENZO BML-SE544-0050) in the assay buffer (50 mM Tris, pH 7.5, 0.01% Tween-20, 25 mM NaCl, 5 mM DTT) were preincubated for 1 hour at 25° C. with 0.8 μL compound/DMSO dotted in black 384 well polystyrene plates. […] After stopping the reactions plates were incubated for 30 minutes and read on a PHERAstar FS plate reader (BMG Labtech).
For orientation: In TR-FRET formats the signal depends on donor and acceptor labels being close together.

Experimental findings from patent US9994546B2, “Cyclopropylamines as LSD1 inhibitors” (Incyte Corporation, priority 2014, dated 2018) are described below.

A value given as a limit tells only on which side of the number the result lay.

Usually IC50 stands for the point on the concentration scale where inhibition reaches its midpoint. A low value points to inhibition by little substance. `N#CCC1(N2CCC(N[C@@H]3C[C@H]3c3ccccc3)CC2)CN(C(=O)[C@H]2CCCO2)C1` [Example 117, {3-(4-{[(1R,2S)-2-phenylcyclopropyl]amino}piperidin-1-yl)-1-[(2R)-tetrahydrofuran-2-ylcarbonyl]azetidin-3-yl}acetonitrile] showed an IC50 not above 100 nM.

Regarding `N#CCC1(N2CCC(N[C@@H]3C[C@H]3c3ccccc3)CC2)CN(C(=O)Cc2ccccn2)C1` [Example 118, [3-(4-{[(1R,2S)-2-phenylcyclopropyl]amino}piperidin-1-yl)-1-(pyridin-2-ylacetyl)azetidin-3-yl]acetonitrile], the 50% inhibitory concentration (IC50) is not above 100 nM.

In the case of `N#CCC1(N2CCC(N[C@@H]3C[C@H]3c3ccccc3)CC2)CN(C(=O)c2cscn2)C1` [Example 119, [3-(4-{[(1R,2S)-2-phenylcyclopropyl]amino}piperidin-1-yl)-1-(1,3-thiazol-4-ylcarbonyl)azetidin-3-yl]acetonitrile], the IC50 is not above 100 nM.

In turn, `N#CCC1(N2CCC(N[C@@H]3C[C@H]3c3ccccc3)CC2)CN(C(=O)c2nccs2)C1` [Example 120, [3-(4-{[(1R,2S)-2-phenylcyclopropyl]amino}piperidin-1-yl)-1-(1,3-thiazol-2-ylcarbonyl)azetidin-3-yl]acetonitrile] showed an IC50 not above 100 nM.

The molecule `CN(C)C(=O)CC1(N2CCC(N[C@@H]3C[C@H]3c3ccccc3)CC2)CN(C2CCOCC2)C1` [Example 121, N,N-dimethyl-2-[3-(4-{[(1R,2S)-2-phenylcyclopropyl]amino}piperidin-1-yl)-1-(tetrahydro-2H-pyran-4-yl)azetidin-3-yl]acetamide] had an IC50 not above 100 nM.

Molecule `CNC(=O)CC1(N2CCC(N[C@@H]3C[C@H]3c3ccccc3)CC2)CN(C2CCOCC2)C1` [Example 122, N-methyl-2-[3-(4-{[(1R,2S)-2-phenylcyclopropyl]amino}piperidin-1-yl)-1-(tetrahydro-2H-pyran-4-yl)azetidin-3-yl]acetamide] displayed an IC50 not above 100 nM.

`CN(C)C(=O)CC1(N2CCC(N[C@@H]3C[C@H]3c3ccccc3)CC2)CN(CC2CC2)C1` [Example 123, 2-[1-(cyclopropylmethyl)-3-(4-{[(1R,2S)-2-phenylcyclopropyl]amino}piperidin-1-yl)azetidin-3-yl]-N,N-dimethylacetamide] displayed an IC50 not above 100 nM.

Turning to `CNC(=O)CC1(N2CCC(N[C@@H]3C[C@H]3c3ccccc3)CC2)CN(CC2CC2)C1` [Example 124, 2-[1-(cyclopropylmethyl)-3-(4-{[(1R,2S)-2-phenylcyclopropyl]amino}piperidin-1-yl)azetidin-3-yl]-N-methylacetamide], the IC50 is not above 100 nM.

On to `O=C(O)CC1(N2CCC(N[C@@H]3C[C@H]3c3ccccc3)CC2)CN(Cc2ncccn2)C1` [Example 125, [3-(4-{[(1R,2S)-2-phenylcyclopropyl]amino}piperidin-1-yl)-1-(pyrimidin-2-ylmethyl)azetidin-3-yl]acetic acid], for which the 50% inhibitory concentration (IC50) was not above 100 nM.

Turning to `O=C(O)CC1(N2CCC(N[C@@H]3C[C@H]3c3ccccc3)CC2)CN(Cc2cncnc2)C1` [Example 126, [3-(4-{[(1R,2S)-2-phenylcyclopropyl]amino}piperidin-1-yl)-1-(pyrimidin-5-ylmethyl)azetidin-3-yl]acetic acid], the IC50 is not above 100 nM.

The molecule `O=C(O)CC1(N2CCC(N[C@@H]3C[C@H]3c3ccccc3)CC2)CN(Cc2cscn2)C1` [Example 127, [3-(4-{[(1R,2S)-2-phenylcyclopropyl]amino}piperidin-1-yl)-1-(1,3-thiazol-4-ylmethyl)azetidin-3-yl]acetic acid] registered a half-inhibitory concentration (IC50) not above 100 nM.

On to `O=C(O)CC1(N2CCC(N[C@@H]3C[C@H]3c3ccccc3)CC2)CN(Cc2cncs2)C1` [Example 128, [3-(4-{[(1R,2S)-2-phenylcyclopropyl]amino}piperidin-1-yl)-1-(1,3-thiazol-5-ylmethyl)azetidin-3-yl]acetic acid], for which the half-maximal inhibitory concentration (IC50) was not above 100 nM.

In turn, `O=C(O)CC1(N2CCC(N[C@@H]3C[C@H]3c3ccccc3)CC2)CN(Cc2nccs2)C1` [Example 129, [3-(4-{[(1R,2S)-2-phenylcyclopropyl]amino}piperidin-1-yl)-1-(1,3-thiazol-2-ylmethyl)azetidin-3-yl]acetic acid] returned an IC50 not above 100 nM.

For the molecule `O=C(O)CC1(N2CCC(N[C@@H]3C[C@H]3c3ccccc3)CC2)CN(CCC(F)(F)F)C1` [Example 130, [3-(4-{[(1R,2S)-2-phenylcyclopropyl]amino}piperidin-1-yl)-1-(3,3,3-trifluoropropyl)azetidin-3-yl]acetic acid], the half-maximal inhibitory concentration (IC50) is not above 100 nM.
